# Measurements reported in US7727955B2, “Pharmaceutical compositions based on NK2 antagonists for pediatric use” (Laboratori Guidotti S.p.A., priority 2004, dated 2010).
# Positions of bridges follow the written chain, without caps; N, C: chain ends. Non-standard residues stand in square brackets, D forms with d. Residues, ends and D or L forms follow the SMILES beside them. *: point of attachment. NH(β-GlcNAc) = CC(=O)N[C@@H]1[C@@H](O)[C@H](O)[C@@H](CO)O[C@H]1N*; Dap = NC[C@H](N)C(=O)O
# Key:
# infant rats = test: Basal intestinal transit in infant rats without agonist administration; format: in vivo; conditions: oral, nepadutant 2.5 mg/kg, measured at 6 hours after administration, no agonist
# Protocol: (§1) The formulations of the present invention were tested for their biological activity in vivo on newborn rats in accordance with the following method:
# (§2) a) The NK2 selective agonist β-Ala^8-NKA(4-10) was administered intraperitoneally to infant rats aged between 7 and 10 days, both males and females, at a dose of 15 μg/kg. A 10% suspension of carbon in 1% methylcellulose was then administered orally to the animals at a volume of 15 ml/kg. The same carbon-based suspension was administered to a control group which had not received the NK2 agonist.
# clinical = conditions: human, in vivo, po
# NK2 receptors = target: T1, NK2 receptors (Rattus norvegicus, UniProt P16610); test: Intestinal transit of a carbon suspension in infant rats, increase induced by NK2 selective agonist β-Ala^8-NKA(4-10); format: in vivo; conditions: infant rats aged 7-10 days
# T1 construct: prevent the increase in intestinal transit induced by the stimulation of NK2 receptors by the β-Ala^8-NKA(4-10) agonist; from tissue; host or cells: whole animal: infant rats aged 7-10 days (intestine, in vivo)
# T1 sequence (P16610 1-390): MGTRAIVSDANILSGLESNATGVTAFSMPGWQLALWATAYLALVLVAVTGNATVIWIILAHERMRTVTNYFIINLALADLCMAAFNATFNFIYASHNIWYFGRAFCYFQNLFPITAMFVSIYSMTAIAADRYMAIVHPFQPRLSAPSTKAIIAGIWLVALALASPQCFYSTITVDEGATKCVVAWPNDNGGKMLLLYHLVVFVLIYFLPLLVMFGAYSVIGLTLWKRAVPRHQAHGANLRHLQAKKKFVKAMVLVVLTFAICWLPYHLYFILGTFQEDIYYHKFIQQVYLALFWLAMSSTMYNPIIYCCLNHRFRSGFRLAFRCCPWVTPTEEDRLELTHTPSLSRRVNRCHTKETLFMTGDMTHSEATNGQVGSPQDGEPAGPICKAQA
# Protocol: as §1, §2
# animal models of IBS = conditions: cited from earlier work
# [1] = set-up: species or system rats; conditions: rat, in vivo, po
# infantile colics = conditions: clinical evidence from literature; cited from earlier work
molecule,measurement,setting,value
"CC(=O)N[C@@H]1[C@@H](O)[C@H](O)[C@@H](CO)O[C@H]1NC(=O)C[C@@H]1NC(=O)[C@H](CC(C)C)NC(=O)[C@@H]2CNC(=O)C[C@H](NC1=O)C(=O)N[C@@H](Cc1c[nH]c3ccccc13)C(=O)N[C@@H](Cc1ccccc1)C(=O)N2 [Nepadutant, cyclo((Asn(β-D-2-deoxy-2-acetamido-Glc)-Asp-Trp-Phe-Dap-Leu)cyclo(2β-5β))] (cyclo(D(NH(β-GlcNAc))DWF[Dap]L); lactam 2-5)",effect on basal intestinal transit,infant rats,no effect on basal intestinal transit
same,bioavailability,clinical,1%
same,prevention of the increase in intestinal transit induced by β-Ala^8-NKA(4-10),"NK2 receptors; oral, nepadutant 0.5 and 2.5 mg/kg at 2, 4 and 6 hours before agonist 15 μg/kg i.p.",able to prevent the increase in intestinal transit
same,correction of hyperalgesia,animal models of IBS,corrects hyperalgesia
same,bioavailability in infant rats,[1],substantially enhanced
simethicone,effect versus placebo,infantile colics,no better than placebo
β-Ala^8-NKA(4-10) [reference compound],increase in intestinal transit after agonist administration,"NK2 receptors; 15 μg/kg i.p., versus control group without agonist",significant increase in intestinal transit
